The test system of test [1] is N2a (mouse) neuronal cells. As to the kind of experiment: MTT cell death assay, N2a neuronal cells. In kind it is cell-based. Particulars: 10 μM Aβ1-42 for 24 hours. The protocol: (§1) MTT Cell Death Assay. The N2a (mouse) and SK-N-SH (human) neuronal cells were seeded to 5000 cells/well in a 96-well plate in DMEM medium, 10% FBS and incubated overnight. Cells in culture medium were incubated either with or without the assay compounds and Aβ1-42, 10 μM for 24-48 h. At the end of treatment, 20 μL of 5 mg/mL 3-(4,5-dimethylthiazol-2-yl)-2,5-diphenyltetrazolium bromide (MTT, Sigma) was added to each well and incubated at 37° C. for 3 h. Medium was removed, 100 μL of MTT solvent (isopropanol with 4 mM HCl) was added to each well, and the plates were incubated for 30 min at room temperature on a rotating shaker. Plates were analyzed on a microplate reader at a 562 nm wavelength.
(§2) FIGS. 2A and 2B. In mouse and human neuronal cell lines co-application of Compound 3 blunted human amylin and amyloid beta induced cytotoxicity. Neuronal cell lines N2a and SK-N-HS were treated with increasing concentrations of Compound 3 plus 10 μM Aβ1-42 or 5 μM hAmylin for 48 h.
A general note: Formazan colour is commonly taken as a measure of viable cells.

The subject of the next test is N2a cells. As to the kind of experiment: Live/Dead cell assay. In kind it is cell-based, mouse. The following applies: data not shown. The protocol: Live/Dead cell assay. LIVE/DEAD™ Viability/Cytotoxicity Kit from ThermoFisher Scientific (Invitrogen) was used according to the instructions of the manufacturer. Briefly, The N2a cells were cultured in 8 well Lab-Tek chamber slide (ThermoFisher Scientific, Nunc). Cells were incubated either with or without the assay compounds, followed by treatment with Aβ1-42 for 24 h. At the end of treatment, the cells were washed three times with D-PBS, followed added live/dead reagent in D-PBS and culture for 30 min. Then fixed the cells with 4% paraformaldehyde for 10 min. Further washed the cells with PBS three times and sealed with coverslip. View the labeled cells under fluorescence microscope. Fluorescent microscopy images were acquired with an Axioplan-2 fluorescence microscope with AxioVision software (Carl Zeiss Ltd., Toronto, ON, Canada). Live/Dead cells were analyzed with Image J software (Schneider, C. A., Rasband, W. S., Eliceiri, K. W. “NIH Image to ImageJ: 25 years of image analysis”. Nature Methods 2012; 9:671-675).

Another test relates to amylin receptor. As to the kind of experiment: downstream phosphoERK response. In kind it is cell-based. The following applies: among Compounds 22-25.
The next test concerns Aβ plaques. As to the kind of experiment: Aβ plaque load (FIG. 8). It counts as in vivo.
Test [2] deals with SK-N-SH (human) neuronal cells. As to the kind of experiment: MTT cell death / cytotoxicity assay, SK-N-SH neuronal cells. In kind it is cell-based. The following applies: 10 μM Aβ1-42 for 24 hours. The protocol:
as §1, §2

The test system of the next test is brain hippocampal slices. As to the kind of experiment: hippocampal long term potentiation (LTP) electrophysiology, slices from wild type mice. Set-up: species or system mouse. The following applies: for effect on human amylin-induced depression/reduction of LTP: hippocampal slices, Compounds 3 and 23 at 1 μM. An excerpt:
Hippocampal long term potentiation (LTP) electrophysiology experiments: an in vitro cellular surrogate for memory. Brains were quickly removed from mice following decapitation, placed in a cold artificial cerebral spinal fluid (aCSF) on a vibratome chamber and transverse sections cut through the hippocampus. The aCSF contained (in mM) 124 NaCl, 3 KCl, 2.4 CaCl2), 2 MgCl2, 1.25 NaH2PO4, 26 NaHCO3 and 10 D-glucose, and was equilibrated with 95% O2 and 5% CO2. Hippocampal slices ([…]) were maintained in aCSF-filled holding chamber at room temperature for at least 1 hour and individually transferred to the submerged glass bottom recording chamber, which was constantly perfused with aCSF (2 mL/min) at 30° C. Field excitatory postsynaptic potential (fEPSP) was recorded with a metallic (Pt/Ir) electrode (FHC, Bowdoin, Me.) from the stratum radiatum layer of Cornu ammonis 1 region of the hippocampus (CA1) area, and the Schaffer collateral afferents were stimulated with 100-μs test pulses via a bipolar cluster electrode (FHC) (Kimura et al., 2012, Kimura et al. 2016). To evaluate basal synaptic transmission, we applied different stimulation strengths (75 μA to 300 μA in steps of 25 μA) and plotted the amplitudes of presynaptic fiber volleys versus the corresponding fEPSP slopes to compare the slope of input/output (I/O) curves of fEPSP. For long-term potentiation (LTP) experiments, the stimulus strength was set to elicit 40-50% of the maximum fEPSP amplitude and test pulses were delivered to Schaffer collaterals once every 30 seconds. LTP was induced by 3-theta-burst stimulation (3-TBS) protocol (each burst consisted of 4 pulses at 100 Hz with a 200-ms inter-burst interval). Before 3-TBS or drug application, the responses were monitored for at least 10 minutes to ensure a stable baseline of fEPSP. […] Results were from various treatment groups were plotted as histograms with means±standard error (SE). […]

Test [3] has as its system hippocampal brain slices from transgenic AD mice (TgCRND8). Kind of test: hippocampal LTP electrophysiology, slices from transgenic AD mice (TgCRND8). Set-up: species or system mouse. Particulars: compared with age-matched control/wild type mice. An excerpt: Hippocampal long term potentiation (LTP) electrophysiology experiments: an in vitro cellular surrogate for memory. Brains were quickly removed from mice following decapitation, placed in a cold artificial cerebral spinal fluid (aCSF) on a vibratome chamber and transverse sections cut through the hippocampus. The aCSF contained (in mM) 124 NaCl, 3 KCl, 2.4 CaCl2), 2 MgCl2, 1.25 NaH2PO4, 26 NaHCO3 and 10 D-glucose, and was equilibrated with 95% O2 and 5% CO2. Hippocampal slices ([…]) were maintained in aCSF-filled holding chamber at room temperature for at least 1 hour and individually transferred to the submerged glass bottom recording chamber, which was constantly perfused with aCSF (2 mL/min) at 30° C. Field excitatory postsynaptic potential (fEPSP) was recorded with a metallic (Pt/Ir) electrode (FHC, Bowdoin, Me.) from the stratum radiatum layer of Cornu ammonis 1 region of the hippocampus (CA1) area, and the Schaffer collateral afferents were stimulated with 100-μs test pulses via a bipolar cluster electrode (FHC) (Kimura et al., 2012, Kimura et al. 2016). […] Before 3-TBS or drug application, the responses were monitored for at least 10 minutes to ensure a stable baseline of fEPSP. […]

The target in test [4] is T1, amylin receptor subtype 3 (AMY3) (Homo sapiens, UniProt O60896+P30988).
T1 construct: expressed in transfected cells
T1 sequence (P30988 25-474): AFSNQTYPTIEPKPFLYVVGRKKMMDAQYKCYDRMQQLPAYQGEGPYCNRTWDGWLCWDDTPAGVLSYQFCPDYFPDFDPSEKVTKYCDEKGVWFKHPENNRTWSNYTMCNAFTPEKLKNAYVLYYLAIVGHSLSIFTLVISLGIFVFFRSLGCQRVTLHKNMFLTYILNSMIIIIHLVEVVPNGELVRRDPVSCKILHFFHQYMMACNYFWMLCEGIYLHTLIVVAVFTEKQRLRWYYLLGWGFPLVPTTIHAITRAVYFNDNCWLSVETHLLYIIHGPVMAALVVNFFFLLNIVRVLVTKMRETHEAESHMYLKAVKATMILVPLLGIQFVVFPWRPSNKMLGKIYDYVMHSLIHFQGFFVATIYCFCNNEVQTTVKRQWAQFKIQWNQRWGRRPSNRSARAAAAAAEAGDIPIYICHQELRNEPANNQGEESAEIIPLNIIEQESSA
T1 sequence (O60896 24-148): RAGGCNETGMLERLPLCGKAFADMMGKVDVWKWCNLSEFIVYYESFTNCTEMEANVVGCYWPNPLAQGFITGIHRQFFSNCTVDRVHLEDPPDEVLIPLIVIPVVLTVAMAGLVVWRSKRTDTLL
As to the kind of experiment: cAMP assay in amylin receptor subtype 3 expressing cells (AMY3-HEK), ELISA and in-cell Western. In kind it is cell-based. The following applies: for IC50: compound and human amylin applied simultaneously, read-out: IC50 required to block hAmylin induced cAMP increase. The protocol: An initial set of 10 compounds was screened using a cyclic AMP (cyclic adenosinemonophosphate, cAMP) assay in amylin receptor subtype 3 expressing cells.
Cell Cultures. Amylin receptor subtypes (AMY3-HEK cells) stably expressed in human embryonic kidney (HEK293) cell-line were generated and characterized as described in a previous published article from our laboratory (Fu et al., J. Biol. Chem. 2012). The AMY3-HEK cells were grown in a 5% CO2 humidified incubator at 37° C. with DMEM, 10% FBS, and 100 μg/mL Zeocin medium.
Two cAMP detection methods were used to validate the findings.
ELISA (enzyme-linked immunosorbent assay). Cellular cAMP levels were measured using a parameter cyclic AMP assay kit (R&D Systems) according to the manufacturer's instructions. Briefly, AMY3-HEK cells were plated on 24-well plates overnight. These cells were then incubated with or without the assay compounds and hAmylin for 5 min. The cells were lysed with lysis buffer provided in the assay kit. Standard curves were plotted using the cAMP standards provided in the ELISA kits. All samples were analyzed in duplicate. The plate is measured at 450 nm. Data was plotted, and non-linear regression was fitted with four parameters using Prism software (GraphPad Software, La Jolla, Calif.).
In-cell Western blot technique. Intracellular cAMP signaling profiles were also determined using in-cell Western blot technique as previously described (Fu W, et al., J Biol Chem. 2012; 287(22):18820-30). AMY3-HEK cells were seeded at 10,000 cells/well in a 96-well plate (Nalge Nunc Intl., Rochester, N.Y.) in DMEM, 10% FBS, Zeocin medium and cultured overnight. […] For cyclic adenosinemonophosphate (cAMP) quantification, mouse monoclonal anti-cAMP (R&D Systems) was used as a primary antibody, and IRDye 800 goat anti mouse antibody (LI-COR) was used as a secondary antibody, whereas Sapphire700 and DRAQ5 were used for cell number normalization (LI-COR). […]
A general note: Changes in cAMP serve as a functional read-out for many G protein-coupled receptors.

Test [5] deals with hippocampus of Alzheimer's disease mice (TgCRND8). Particulars: Kimura et al., 2012; 2016; cited from earlier work.
The subject of the next test is neurons. Particulars: Jhamandas et al., 2004; 2011; 2012; cited from earlier work.

Read-outs that look alike come from different tables or passages of the source. Where no end group is shown, it is not given here.

With `Cc1nc(C)c(CCC(=O)N2CC(=O)Nc3ccccc32)c(=O)[nH]1` [Compound 23, 4-(3-(2,4-dimethyl-6-oxo-1,6-dihydropyrimidin-5-yl)propanoyl)-3,4-dihydroquinoxalin-2(1H)-one], the “neuroprotection against amyloid beta toxicity” value in [1] and in test [2] was “neuroprotective against amyloid beta toxicity” each time. Also, the “neuroprotective effects against Aβ toxicity, Live/Dead cell assay” value in the test with N2a cells is listed as “confirmed neuroprotective effects”. Besides, the “potency rank in downstream phosphoERK response” value in the test on amylin receptor was “most potent of these four analogues”. Also, the “area covered by plaques” value with Aβ plaques is “decreases”. In addition, the “total Aβ plaques” value in the test on Aβ plaques was “decreases”. The “effect on human amylin-induced depression/reduction of LTP” value in the test on brain hippocampal slices was “restored the reduction in LTP by nanomolar dose of human amylim (h-Amylin) to control levels”. Moreover, the “effect on amyloid beta (Aβ)-induced reduction in LTP” value with brain hippocampal slices (nanomolar dose of Aβ, compound 1 μM) was “restored to control levels”. Besides, the “effect on chronically depressed LTP in transgenic AD mice slices” value in [3] is given as “restoration of LTP in AD mice to levels comparable to wild type mice”. The IC50 in test [4] (0.1 μM hAmylin) was determined as 1 nM; in test [4] (1 μM hAmylin), 150 nM. The “potency rank in cAMP assay” value in test [4] (among Compounds 22-25) was “most potent of these four analogues”.
In the case of “cyclized AC253: cyclized AC253 (CLGRLSQELHRLQTYPRTNTGSNTYC; also: cyclised, mode of ring closure not given here) [reference compound]”, in the test on Aβ plaques, the “area covered by plaques” value is on record as “decreases” and the “total Aβ plaques” value was “decreases”.
For “AC253: peptide antagonist of the amylin receptor, SEQ ID NO: 1 (Ac-LGRLSQELHRLQTYPRTNTGSNTY)”, the “effect on Aβ- or human amylin-induced depression of long-term potentiation” value in [5] is “can reverse impairment of Aβ- or human amylin-induced depression of long-term potentiation”. Moreover, in the test on neurons, the “neuroprotection against Aβ toxicity” value is on record as “neuroprotective against Aβ toxicity”.
Take `COC(=O)N[C@H](C(=O)N1CCC[C@H]1c1ncc(-c2ccccc2)[nH]1)C(C)C` [AVI9030, methyl N-[(1S)-2-methyl-1-[[(2S)-2-(5-phenyl-1H-imidazol-2-yl)-1-pyrrolidinyl]carbonyl]propyl]carbamate, reference compound]: the “effect on human amylin-induced depression/reduction of LTP” value in the test with brain hippocampal slices is “did not block human amylin-induced reduction of LTP”.

Broadly, the IC50 is the concentration that inhibits the measured activity by half.

These data come from patent US20220226335A1, “Non-Peptidic Heterocycle-Containing Compounds for the Treatment of Alzheimer?s Disease” (The Governors of the University of Alberta, priority 2019, published 2022).
